Laboratory results reported in EP1724268A1, “COMPOUND HAVING TGF-BETA INHIBITORY ACTIVITY AND PHARMACEUTICAL COMPOSITION CONTAINING SAME” (KIRIN BEER KABUSHIKI KAISHA, priority 2004, dated 2005).
Where two headings read alike, the source gives them in different places.

Tested on: TGFβ signal
Assay: TGFβ signal inhibitory activity, (SBE)4-Luc reporter in A549 cells (Test Examples 1A and 1B)
Format: cell-based, human
Conditions: Homo sapiens
Outline: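 Compounds at 3 µM and 10 µM (some 1 µM) were added with 2 ng/ml TGFβ-1 to A549 cells stably expressing an SBE-driven luciferase, then cultured 4 hr. Chemiluminescent luciferase signal gave % inhibition versus TGFβ-alone and no-TGFβ controls.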

[1] = A549, compounds of Reference Examples (Test Example 1B), read-out: TGFβ inhibition rate, %
[2] = A549, 10 µM, compounds of Reference Examples (Test Example 1B), read-out: TGFβ inhibition rate, %

Work on `COc1cc2c(Oc3cc(C)c(C)nc3-c3ccccc3)ccnc2cc1OCC(CO)CO` [Compound r336] yielded an inhibition at 3 µM [1] of 100%.

Work on `COc1cc2c(Oc3cc(C)c(C)nc3-c3ccccn3)ccnc2cc1OCc1ccccc1` [Compound r337] yielded an inhibition at 3 µM [1] of 98%.

`COc1cc2c(Oc3cc(C)c(C)nc3-c3ccccn3)ccnc2cc1O` [Compound r338] was tested, and the inhibition at 3 µM [1] was 92% and the inhibition at 10 µM [2] was 100%.

Compound `COc1cc2c(Oc3cc(C)c(C)nc3-c3ccccn3)ccnc2cc1OCCO` [Compound r339] has an inhibition at 3 µM [1] of 100%.

`COc1cc2c(Oc3cc(C)c(C)nc3-c3ccccn3)ccnc2cc1OCCCO` [Compound r340] showed an inhibition at 3 µM [1] of 99%.

For `COc1cc2c(Oc3cc(C)c(C)nc3-c3ccccn3)ccnc2cc1OCC1CO1` (centres unmarked) [Compound r341], the inhibition at 3 µM [1] was 99%.

Work on `COc1cc2c(Oc3cc(C)c(C)nc3-c3ccccn3)ccnc2cc1OCC(O)CO` (centres unmarked) [Compound r342] yielded an inhibition at 3 µM [1] of 89%.

With `COc1cc2c(Oc3cc(C)c(C)nc3-c3ccccn3)ccnc2cc1OCC(CO)CO` [Compound r343] the inhibition at 3 µM [1] was 93%.

`COc1cc2c(Oc3cc(C)c(C)nc3-c3cccnc3)ccnc2cc1OCc1ccccc1` [Compound r344] was tested, and the inhibition at 3 µM [1] was 92%.

`COc1cc2c(Oc3cc(C)c(C)nc3-c3cccnc3)ccnc2cc1O` [Compound r345] was tested, and the inhibition at 3 µM [1] was 61% and the inhibition at 10 µM [2] was 93%.

Compound `COc1cc2c(Oc3cc(C)c(C)nc3-c3cccnc3)ccnc2cc1OCCO` [Compound r346] has an inhibition at 3 µM [1] of 99%.

`COc1cc2c(Oc3cc(C)c(C)nc3-c3cccnc3)ccnc2cc1OCCCO` [Compound r347] showed an inhibition at 3 µM [1] of 100%.

`COc1cc2c(Oc3cc(C)c(C)nc3-c3cccnc3)ccnc2cc1OCC1CO1` (centres unmarked) [Compound r348] was tested, and the inhibition at 3 µM [1] was 76%.

`COc1cc2c(Oc3cc(C)c(C)nc3-c3cccnc3)ccnc2cc1OCC(O)CO` (centres unmarked) [Compound r349] gave an inhibition at 3 µM [1] of 96%.

Work on `COc1cc2c(Oc3cc(C)c(C)nc3-c3cccnc3)ccnc2cc1OCC(CO)CO` [Compound r350] yielded an inhibition at 3 µM [1] of 96%.

`COc1cc2c(Oc3cc4ccccc4nc3C)ccnc2cc1OCc1ccccc1` [Compound r351, 7-Benzyloxy-6-methoxy-4-(2-methyl-quinolin-3-yloxy)-quinoline] gave an inhibition at 3 µM [1] of 42% and an inhibition at 10 µM [2] of 90%.

For `COc1cc2c(Oc3cc4ccccc4nc3C)ccnc2cc1O` [Compound r352, 6-Methoxy-4-(2-methyl-quinolin-3-yloxy)-quinolin-7-ol], the inhibition at 3 µM [1] was 14% and the inhibition at 10 µM [2] was 68%.

With `COc1cc2c(Oc3cc4ccccc4nc3C)ccnc2cc1OCCCl` [Compound r353] the inhibition at 3 µM [1] was 54% and the inhibition at 10 µM [2] was 86%.

`COc1cc2c(Oc3cc4ccccc4nc3C)ccnc2cc1OCCN` [Compound r354] showed an inhibition at 3 µM [1] of 100% and an inhibition at 10 µM [2] of 100%.

For `COc1cc2c(Oc3cc4ccccc4nc3C)ccnc2cc1OCCN(C)C` [Compound r355], the inhibition at 3 µM [1] was 100% and the inhibition at 10 µM [2] was 100%.

In the case of `COc1cc2c(Oc3cc4ccccc4nc3C)ccnc2cc1OCCNC(=N)N` [Compound r356], the inhibition at 3 µM [1] is reported as -2% and the inhibition at 10 µM [2] is reported as 54%.

For `COc1cc2c(Oc3cc4ccccc4nc3C)ccnc2cc1OCCNC(=O)CC(C)(C)CC(=O)O` [Compound r357], the inhibition at 3 µM [1] was 27% and the inhibition at 10 µM [2] was 60%.

`COc1cc2c(Oc3cc4ccccc4nc3C)ccnc2cc1OCCN1CCCCC1` [Compound r358] showed an inhibition at 3 µM [1] of 100% and an inhibition at 10 µM [2] of 100%.

Compound `COc1cc2c(Oc3cc4ccccc4nc3C)ccnc2cc1OCCN1CCCC(CO)C1` (centres unmarked) [Compound r359] has an inhibition at 3 µM [1] of 100% and an inhibition at 10 µM [2] of 100%.

`COc1cc2c(Oc3cc4ccccc4nc3C)ccnc2cc1OCCN1CCCC(C(N)=O)C1` (centres unmarked) [Compound r360] was tested, and the inhibition at 3 µM [1] was 100% and the inhibition at 10 µM [2] was 100%.

Compound `CCOC(=O)C1CCCN(CCOc2cc3nccc(Oc4cc5ccccc5nc4C)c3cc2OC)C1` (centres unmarked) [Compound r361] has an inhibition at 3 µM [1] of 96% and an inhibition at 10 µM [2] of 100%.

With `COc1cc2c(Oc3cc4ccccc4nc3C)ccnc2cc1OCCN1CCC(C(N)=O)CC1` [Compound r362] the inhibition at 3 µM [1] was 100% and the inhibition at 10 µM [2] was 100%.

With `CCOC(=O)C1CCN(CCOc2cc3nccc(Oc4cc5ccccc5nc4C)c3cc2OC)CC1` [Compound r363] the inhibition at 3 µM [1] was 100% and the inhibition at 10 µM [2] was 100%.

In the case of `COc1cc2c(Oc3cc4ccccc4nc3C)ccnc2cc1OCCN1CCC(O)CC1` [Compound r364], the inhibition at 3 µM [1] is reported as 100% and the inhibition at 10 µM [2] is reported as 100%.

`COc1cc2c(Oc3cc4ccccc4nc3C)ccnc2cc1OCCN1CCOCC1` [Compound r366] was tested, and the inhibition at 10 µM (A549, read-out: TGFβ inhibition rate, %) was 100%.

`COc1cc2c(Oc3cc4ccccc4nc3C)ccnc2cc1OCCN1C(=O)c2ccccc2C1=O` [Compound r367] was tested, and the inhibition at 3 µM [1] was 95% and the inhibition at 10 µM [2] was 98%.

`COc1cc2c(Oc3cc4ccccc4nc3C)ccnc2cc1OCCn1ccnc1` [Compound r368] was tested, and the inhibition at 3 µM [1] was 100% and the inhibition at 10 µM [2] was 100%.

For `COc1cc2c(Oc3cc4ccccc4nc3C)ccnc2cc1OCCO` [Compound r369], the inhibition at 3 µM [1] was 99% and the inhibition at 10 µM [2] was 100%.

`COc1cc2c(Oc3cc4ccccc4nc3C)ccnc2cc1OCC(N)=O` [Compound r370] showed an inhibition at 3 µM [1] of 85% and an inhibition at 10 µM [2] of 99%.

Compound `COC(=O)COc1cc2nccc(Oc3cc4ccccc4nc3C)c2cc1OC` [Compound r371] has an inhibition at 3 µM [1] of 28% and an inhibition at 10 µM [2] of 90%.

In the case of `CCOC(=O)COc1cc2nccc(Oc3cc4ccccc4nc3C)c2cc1OC` [Compound r372], the inhibition at 3 µM [1] is reported as 14% and the inhibition at 10 µM [2] is reported as 93%.

In the case of `CCOC(=O)C(Oc1cc2nccc(Oc3cc4ccccc4nc3C)c2cc1OC)C(=O)OCC` [Compound r373], the inhibition at 3 µM [1] is reported as 48% and the inhibition at 10 µM [2] is reported as 86%.

Work on `COc1cc2c(Oc3cc4ccccc4nc3C)ccnc2cc1OC(CO)CO` [Compound r374] yielded an inhibition at 3 µM [1] of 26% and an inhibition at 10 µM [2] of 79%.

Compound `COc1cc2c(Oc3cc4ccccc4nc3C)ccnc2cc1OCCCCl` [Compound r375] has an inhibition at 3 µM [1] of 84% and an inhibition at 10 µM [2] of 100%.

For `COc1cc2c(Oc3cc4ccccc4nc3C)ccnc2cc1OCCCN` [Compound r376], the inhibition at 3 µM [1] was 100% and the inhibition at 10 µM [2] was 100%.

Work on `COc1cc2c(Oc3cc4ccccc4nc3C)ccnc2cc1OCCCNC(=N)N` [Compound r377] yielded an inhibition at 3 µM [1] of 93% and an inhibition at 10 µM [2] of 100%.

For `COc1cc2c(Oc3cc4ccccc4nc3C)ccnc2cc1OCCCN1CCCCC1` [Compound r378], the inhibition at 3 µM [1] was 100% and the inhibition at 10 µM [2] was 100%.

For `COc1cc2c(Oc3cc4ccccc4nc3C)ccnc2cc1OCCCN1CCOCC1` [Compound r379], the inhibition at 3 µM [1] was 100% and the inhibition at 10 µM [2] was 100%.

`COc1cc2c(Oc3cc4ccccc4nc3C)ccnc2cc1OCCCN1C(=O)c2ccccc2C1=O` [Compound r380] showed an inhibition at 3 µM [1] of 50% and an inhibition at 10 µM [2] of 89%.

With `COc1cc2c(Oc3cc4ccccc4nc3C)ccnc2cc1OCCCn1ccnc1` [Compound r381] the inhibition at 3 µM [1] was 100% and the inhibition at 10 µM [2] was 100%.

For `COc1cc2c(Oc3cc4ccccc4nc3C)ccnc2cc1OCCCO` [Compound r382], the inhibition at 3 µM [1] was 100% and the inhibition at 10 µM [2] was 100%.

Compound `COc1cc2c(Oc3cc4ccccc4nc3C)ccnc2cc1OCC1CO1` (centres unmarked) [Compound r383, 6-Methoxy-4-(2-methyl-quinolin-3-yloxy)-7-oxilanyl methoxy-quinoline] has an inhibition at 3 µM [1] of 97% and an inhibition at 10 µM [2] of 100%.

In the case of `COc1cc2c(Oc3cc4ccccc4nc3C)ccnc2cc1OC[C@@H](O)CO` [Compound r385], the inhibition at 3 µM [1] is reported as 100% and the inhibition at 10 µM [2] is reported as 100%.

`COc1cc2c(Oc3cc4ccccc4nc3C)ccnc2cc1OC[C@H](O)CO` [Compound r386] gave an inhibition at 3 µM [1] of 99%.

`COc1cc2c(Oc3cc4ccccc4nc3C)ccnc2cc1OCC(CO)CO` [Compound r387] gave an inhibition at 3 µM [1] of 99% and an inhibition at 10 µM [2] of 100%.

Compound `COc1cc2c(Oc3cc4ccccc4nc3C)ccnc2cc1OCC(CO)(CO)CO` [Compound r388] has an inhibition at 3 µM [1] of 88% and an inhibition at 10 µM [2] of 100%.

For `COc1cc2c(Oc3cc4ccccc4nc3C)ccnc2cc1OCC(CO)(CO)CBr` [Compound r389], the inhibition at 3 µM [1] was 100% and the inhibition at 10 µM [2] was 100%.

Compound `COc1cc2c(Oc3cc4ccccc4nc3C(C)=O)ccnc2cc1O` [Compound r390] has an inhibition at 3 µM [1] of 16% and an inhibition at 10 µM [2] of 64%.

`COc1cc2c(Oc3cc4ccccc4nc3C(C)=O)ccnc2cc1OCCN1CCOCC1` [Compound r391] was tested, and the inhibition at 3 µM [1] was 99% and the inhibition at 10 µM [2] was 100%.

For `COc1cc2c(Oc3cc4ccccc4nc3C(C)=O)ccnc2cc1OCCO` [Compound r392], the inhibition at 3 µM [1] was 93% and the inhibition at 10 µM [2] was 100%.

`COc1cc2c(Oc3cc4ccccc4nc3C(C)=O)ccnc2cc1OCCN1CCCC(O)C1` (centres unmarked) [Compound r393] was tested, and the inhibition at 3 µM [1] was 100%.

In the case of `COc1cc2c(Oc3cc4ccccc4nc3C(C)=O)ccnc2cc1OCC1CO1` (centres unmarked) [Compound r394], the inhibition at 3 µM [1] is reported as 83% and the inhibition at 10 µM [2] is reported as 100%.

`COc1cc2c(Oc3cc4ccccc4nc3C(C)=O)ccnc2cc1OCC(O)CO` (centres unmarked) [Compound r395] was tested, and the inhibition at 3 µM [1] was 96% and the inhibition at 10 µM [2] was 100%.

In the case of `COc1cc2c(Oc3cc4ccccc4nc3C(C)=O)ccnc2cc1OCC(CO)CO` [Compound r396], the inhibition at 3 µM [1] is reported as 96%.

`COc1cc2c(Oc3cc4cccnc4nc3C)ccnc2cc1OCc1ccccc1` [Compound r397] showed an inhibition at 3 µM [1] of 71% and an inhibition at 10 µM [2] of 100%.

`COc1cc2c(Oc3cc4cccnc4nc3C)ccnc2cc1OCCCl` [Compound r398] showed an inhibition at 3 µM [1] of 78% and an inhibition at 10 µM [2] of 97%.

For `COc1cc2c(Oc3cc4cccnc4nc3C)ccnc2cc1OCCN1CCCC(O)C1` (centres unmarked) [Compound r399], the inhibition at 3 µM [1] was 99% and the inhibition at 10 µM [2] was 100%.

`COc1cc2c(Oc3cc4cccnc4nc3C)ccnc2cc1OCCO` [Compound r400] showed an inhibition at 3 µM [1] of 82% and an inhibition at 10 µM [2] of 100%.

`COc1cc2c(Oc3cc4cccnc4nc3C)ccnc2cc1OCC1CO1` (centres unmarked) [Compound r401] gave an inhibition at 3 µM [1] of 24% and an inhibition at 10 µM [2] of 76%.

In the case of `COc1cc2c(Oc3cc4cccnc4nc3C)ccnc2cc1OCCCO` [Compound r402], the inhibition at 3 µM [1] is reported as 90% and the inhibition at 10 µM [2] is reported as 100%.
